Assay results published in ChEMBL document CHEMBL5058646 (2022).

Experiments:
[1] = molecular target: Transcription regulator protein BACH2 (Homo sapiens) (UniProt Q9BYV9); details: OCI-Ly1, Compound concentration 1.0 uM
[2] = molecular target: Dual specificity mitogen-activated protein kinase kinase 6 (Homo sapiens) (UniProt P52564); experiment: MAP2K6 SGC Tm panel (DSF); details: Compound concentration 20.0 uM
Myoneurin (Homo sapiens) = Myoneurin (Homo sapiens) (UniProt Q9NPC7); details: SUD4, Compound concentration 1.0 uM
[3] = molecular target: Protein archease (Homo sapiens) (UniProt Q8IWT0); details: SUD4, Compound concentration 1.0 uM
[4] = molecular target: Cyclin-dependent kinase-like 1 (Homo sapiens) (UniProt Q00532); experiment: CDKL1 SGC Tm panel (DSF); details: Compound concentration 20.0 uM
[5] = molecular target: Calcium/calmodulin-dependent protein kinase type IV (Homo sapiens) (UniProt Q16566); experiment: CAMK4 SGC Tm panel (DSF); details: Compound concentration 20.0 uM
[6] = molecular target: T1, Transcriptional regulator Kaiso (Homo sapiens) (UniProt Q86T24); details: OCI-Ly1, Compound concentration 1.0 uM
T1 sequence (whole entry): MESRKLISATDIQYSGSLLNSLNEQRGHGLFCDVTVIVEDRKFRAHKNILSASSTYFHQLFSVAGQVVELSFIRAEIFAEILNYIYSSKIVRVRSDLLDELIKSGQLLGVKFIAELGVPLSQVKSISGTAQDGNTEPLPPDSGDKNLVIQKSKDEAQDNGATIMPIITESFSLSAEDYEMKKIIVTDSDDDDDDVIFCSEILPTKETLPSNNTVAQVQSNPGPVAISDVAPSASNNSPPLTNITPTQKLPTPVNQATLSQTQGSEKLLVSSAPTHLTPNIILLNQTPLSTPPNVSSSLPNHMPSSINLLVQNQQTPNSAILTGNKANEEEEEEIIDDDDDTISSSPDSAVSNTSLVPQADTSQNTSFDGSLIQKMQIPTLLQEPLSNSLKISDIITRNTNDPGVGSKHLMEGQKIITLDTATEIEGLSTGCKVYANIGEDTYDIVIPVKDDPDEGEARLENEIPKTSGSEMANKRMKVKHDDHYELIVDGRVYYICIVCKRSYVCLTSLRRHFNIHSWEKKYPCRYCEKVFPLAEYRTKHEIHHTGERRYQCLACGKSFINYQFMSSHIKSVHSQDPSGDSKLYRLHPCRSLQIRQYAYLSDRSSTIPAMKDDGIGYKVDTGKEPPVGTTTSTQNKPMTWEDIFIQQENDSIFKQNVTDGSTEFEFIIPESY

[7] = molecular target: Dual specificity protein kinase CLK3 (Homo sapiens) (UniProt P49761); experiment: CLK3 SGC Tm panel (DSF); details: Compound concentration 20.0 uM
[8] = molecular target: Death-associated protein kinase 1 (Homo sapiens) (UniProt P53355); experiment: DAPK1 SGC Tm panel (DSF); details: Compound concentration 20.0 uM
[9] = molecular target: Proto-oncogene tyrosine-protein kinase Src (Homo sapiens) (UniProt P12931); experiment: SRC SGC Tm panel (DSF); details: Compound concentration 20.0 uM
[10] = molecular target: T2, Zinc finger and BTB domain-containing protein 44 (Homo sapiens) (UniProt Q8NCP5); details: OCI-Ly1, Compound concentration 1.0 uM
T2 sequence (whole entry): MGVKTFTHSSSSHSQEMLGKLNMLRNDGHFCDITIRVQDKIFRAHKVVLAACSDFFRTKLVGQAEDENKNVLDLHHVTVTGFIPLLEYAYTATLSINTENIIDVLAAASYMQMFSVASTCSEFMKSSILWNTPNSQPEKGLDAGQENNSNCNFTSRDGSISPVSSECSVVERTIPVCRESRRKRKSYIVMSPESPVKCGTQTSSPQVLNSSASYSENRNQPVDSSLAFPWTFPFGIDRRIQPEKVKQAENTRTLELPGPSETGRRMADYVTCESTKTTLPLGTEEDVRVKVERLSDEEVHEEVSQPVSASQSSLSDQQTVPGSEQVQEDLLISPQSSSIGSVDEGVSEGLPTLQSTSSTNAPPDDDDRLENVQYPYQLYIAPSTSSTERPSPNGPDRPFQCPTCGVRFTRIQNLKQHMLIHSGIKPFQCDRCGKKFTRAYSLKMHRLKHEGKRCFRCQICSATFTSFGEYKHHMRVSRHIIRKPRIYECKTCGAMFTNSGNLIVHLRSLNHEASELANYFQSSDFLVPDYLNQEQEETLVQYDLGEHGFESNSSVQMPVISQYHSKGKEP

[11] = molecular target: T3, Zinc finger and BTB domain-containing protein 10 (Homo sapiens) (UniProt Q96DT7); details: SUD4, Compound concentration 1.0 uM
T3 sequence (whole entry): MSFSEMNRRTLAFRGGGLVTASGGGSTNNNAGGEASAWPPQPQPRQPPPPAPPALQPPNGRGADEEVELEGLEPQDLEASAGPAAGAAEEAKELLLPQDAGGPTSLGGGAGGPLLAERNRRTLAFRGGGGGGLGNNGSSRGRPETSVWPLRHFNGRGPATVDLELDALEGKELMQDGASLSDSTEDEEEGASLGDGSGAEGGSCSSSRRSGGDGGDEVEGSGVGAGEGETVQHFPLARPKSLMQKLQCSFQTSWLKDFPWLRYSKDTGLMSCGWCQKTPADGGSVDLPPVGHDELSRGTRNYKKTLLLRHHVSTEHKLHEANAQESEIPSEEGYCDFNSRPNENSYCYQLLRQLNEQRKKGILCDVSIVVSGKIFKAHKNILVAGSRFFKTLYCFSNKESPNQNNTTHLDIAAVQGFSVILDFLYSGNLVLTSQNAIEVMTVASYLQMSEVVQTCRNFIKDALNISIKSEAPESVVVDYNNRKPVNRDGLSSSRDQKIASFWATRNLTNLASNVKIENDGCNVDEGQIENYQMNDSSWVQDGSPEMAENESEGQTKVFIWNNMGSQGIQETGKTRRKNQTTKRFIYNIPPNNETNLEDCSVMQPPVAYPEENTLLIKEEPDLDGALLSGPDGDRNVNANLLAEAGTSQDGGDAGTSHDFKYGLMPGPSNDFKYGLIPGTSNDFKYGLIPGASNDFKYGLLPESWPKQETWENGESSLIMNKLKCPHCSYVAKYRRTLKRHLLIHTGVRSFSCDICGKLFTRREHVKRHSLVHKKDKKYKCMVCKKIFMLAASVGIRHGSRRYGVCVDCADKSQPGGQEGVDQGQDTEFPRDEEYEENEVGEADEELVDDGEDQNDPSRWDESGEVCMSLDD

[12] = molecular target: Phosphorylase b kinase gamma catalytic chain, liver/testis isoform (Homo sapiens) (UniProt P15735); experiment: PHKG2 SGC Tm panel (DSF); details: Compound concentration 20.0 uM
[13] = molecular target: Zinc finger and BTB domain-containing protein 17 (Homo sapiens) (UniProt Q13105); details: SUD4, Compound concentration 1.0 uM
[14] = molecular target: Beta-3 adrenergic receptor (Homo sapiens, UniProt P13945); experiment: GPCRScan assay: inhibition of Beta3; design: radioligand conc. used [nm] 0.2 – 0.5, parental cells HEK Flp-In
[15] = molecular target: Serine/threonine-protein kinase 17A (Homo sapiens) (UniProt Q9UEE5); experiment: STK17A SGC Tm panel (DSF); details: Compound concentration 20.0 uM
Serine/threonine-protein kinase 17A (Homo sapiens), sequence (Q9UEE5 whole entry): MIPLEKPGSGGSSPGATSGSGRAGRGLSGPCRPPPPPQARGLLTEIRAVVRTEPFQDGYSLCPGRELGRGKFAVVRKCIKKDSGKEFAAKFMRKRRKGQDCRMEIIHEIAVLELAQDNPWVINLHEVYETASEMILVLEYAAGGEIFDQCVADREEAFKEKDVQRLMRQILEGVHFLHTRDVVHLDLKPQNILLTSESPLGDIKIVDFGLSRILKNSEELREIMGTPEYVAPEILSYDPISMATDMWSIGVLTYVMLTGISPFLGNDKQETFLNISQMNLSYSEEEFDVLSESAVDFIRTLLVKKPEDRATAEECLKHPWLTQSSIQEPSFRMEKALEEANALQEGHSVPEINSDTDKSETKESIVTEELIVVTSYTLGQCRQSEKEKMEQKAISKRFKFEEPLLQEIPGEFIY

Beta-3 adrenergic receptor, sequence (P13945 whole entry): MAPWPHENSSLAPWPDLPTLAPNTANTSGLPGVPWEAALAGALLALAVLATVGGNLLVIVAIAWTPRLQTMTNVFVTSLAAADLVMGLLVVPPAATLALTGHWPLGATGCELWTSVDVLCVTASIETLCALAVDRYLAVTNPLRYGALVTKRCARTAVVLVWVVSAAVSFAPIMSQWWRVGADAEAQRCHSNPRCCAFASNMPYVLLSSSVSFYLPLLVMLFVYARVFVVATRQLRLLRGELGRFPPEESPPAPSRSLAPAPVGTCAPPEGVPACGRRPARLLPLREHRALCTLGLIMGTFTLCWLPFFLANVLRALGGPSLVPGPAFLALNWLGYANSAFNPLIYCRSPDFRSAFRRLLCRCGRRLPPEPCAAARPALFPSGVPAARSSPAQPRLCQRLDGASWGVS
Zinc finger and BTB domain-containing protein 17 (Homo sapiens), sequence (Q13105 whole entry, the tested form may be a part): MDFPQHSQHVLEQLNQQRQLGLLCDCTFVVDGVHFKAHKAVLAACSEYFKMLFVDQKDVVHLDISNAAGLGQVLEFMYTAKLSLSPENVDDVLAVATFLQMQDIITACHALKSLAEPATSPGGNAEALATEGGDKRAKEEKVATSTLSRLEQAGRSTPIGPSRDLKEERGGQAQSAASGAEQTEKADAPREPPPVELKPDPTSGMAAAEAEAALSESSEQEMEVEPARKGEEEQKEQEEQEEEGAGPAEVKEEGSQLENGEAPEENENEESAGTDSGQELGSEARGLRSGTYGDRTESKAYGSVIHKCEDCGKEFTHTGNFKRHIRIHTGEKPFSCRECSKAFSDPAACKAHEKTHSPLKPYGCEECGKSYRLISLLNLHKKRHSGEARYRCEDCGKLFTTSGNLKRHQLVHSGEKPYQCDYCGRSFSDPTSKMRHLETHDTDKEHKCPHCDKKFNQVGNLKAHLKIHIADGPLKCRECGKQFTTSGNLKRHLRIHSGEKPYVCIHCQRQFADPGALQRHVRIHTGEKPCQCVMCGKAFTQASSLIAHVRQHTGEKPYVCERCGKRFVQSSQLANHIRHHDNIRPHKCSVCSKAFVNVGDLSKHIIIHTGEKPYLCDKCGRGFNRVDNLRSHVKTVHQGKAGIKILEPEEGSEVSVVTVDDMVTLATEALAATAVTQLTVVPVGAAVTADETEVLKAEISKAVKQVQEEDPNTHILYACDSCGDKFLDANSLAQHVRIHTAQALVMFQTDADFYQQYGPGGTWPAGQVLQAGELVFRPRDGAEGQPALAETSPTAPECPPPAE
Dual specificity mitogen-activated protein kinase kinase 6 (Homo sapiens), sequence (P52564 whole entry): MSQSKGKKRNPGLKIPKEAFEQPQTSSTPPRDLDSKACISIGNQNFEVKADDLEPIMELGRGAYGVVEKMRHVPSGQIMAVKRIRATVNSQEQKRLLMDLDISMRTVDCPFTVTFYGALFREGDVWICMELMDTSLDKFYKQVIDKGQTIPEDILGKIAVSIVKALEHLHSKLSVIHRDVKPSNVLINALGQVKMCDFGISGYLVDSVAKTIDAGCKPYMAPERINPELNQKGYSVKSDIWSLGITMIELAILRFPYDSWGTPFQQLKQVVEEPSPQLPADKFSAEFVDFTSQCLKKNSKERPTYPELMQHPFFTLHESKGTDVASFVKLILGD
Protein archease (Homo sapiens), sequence (Q8IWT0 whole entry): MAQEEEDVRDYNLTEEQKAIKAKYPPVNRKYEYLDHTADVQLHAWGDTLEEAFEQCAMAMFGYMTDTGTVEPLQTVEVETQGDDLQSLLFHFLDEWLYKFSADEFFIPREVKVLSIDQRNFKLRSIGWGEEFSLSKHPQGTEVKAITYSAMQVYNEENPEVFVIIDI
Calcium/calmodulin-dependent protein kinase type IV (Homo sapiens), sequence (Q16566 whole entry): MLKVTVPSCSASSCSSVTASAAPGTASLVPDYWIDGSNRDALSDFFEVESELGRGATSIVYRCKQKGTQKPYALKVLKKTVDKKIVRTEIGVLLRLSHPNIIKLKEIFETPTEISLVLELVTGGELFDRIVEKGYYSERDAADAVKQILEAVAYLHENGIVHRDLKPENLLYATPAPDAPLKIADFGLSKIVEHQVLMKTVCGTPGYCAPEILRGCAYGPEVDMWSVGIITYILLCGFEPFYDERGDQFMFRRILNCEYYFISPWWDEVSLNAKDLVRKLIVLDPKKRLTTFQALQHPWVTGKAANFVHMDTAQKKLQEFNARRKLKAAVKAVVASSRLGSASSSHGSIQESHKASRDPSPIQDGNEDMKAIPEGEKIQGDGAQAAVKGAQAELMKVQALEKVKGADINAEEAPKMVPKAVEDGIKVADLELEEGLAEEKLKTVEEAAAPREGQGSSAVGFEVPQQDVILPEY
Cyclin-dependent kinase-like 1 (Homo sapiens), sequence (Q00532 whole entry): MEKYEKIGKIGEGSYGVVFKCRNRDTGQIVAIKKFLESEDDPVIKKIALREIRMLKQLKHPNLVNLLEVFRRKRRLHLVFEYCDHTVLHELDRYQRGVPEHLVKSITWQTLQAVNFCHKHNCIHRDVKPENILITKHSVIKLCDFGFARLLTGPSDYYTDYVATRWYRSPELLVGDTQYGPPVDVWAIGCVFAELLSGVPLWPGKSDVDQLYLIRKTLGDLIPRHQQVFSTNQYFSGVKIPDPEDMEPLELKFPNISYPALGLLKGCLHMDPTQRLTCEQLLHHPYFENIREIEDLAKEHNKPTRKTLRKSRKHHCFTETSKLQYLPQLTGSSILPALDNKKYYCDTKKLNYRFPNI
Transcription regulator protein BACH2 (Homo sapiens), sequence (Q9BYV9 whole entry): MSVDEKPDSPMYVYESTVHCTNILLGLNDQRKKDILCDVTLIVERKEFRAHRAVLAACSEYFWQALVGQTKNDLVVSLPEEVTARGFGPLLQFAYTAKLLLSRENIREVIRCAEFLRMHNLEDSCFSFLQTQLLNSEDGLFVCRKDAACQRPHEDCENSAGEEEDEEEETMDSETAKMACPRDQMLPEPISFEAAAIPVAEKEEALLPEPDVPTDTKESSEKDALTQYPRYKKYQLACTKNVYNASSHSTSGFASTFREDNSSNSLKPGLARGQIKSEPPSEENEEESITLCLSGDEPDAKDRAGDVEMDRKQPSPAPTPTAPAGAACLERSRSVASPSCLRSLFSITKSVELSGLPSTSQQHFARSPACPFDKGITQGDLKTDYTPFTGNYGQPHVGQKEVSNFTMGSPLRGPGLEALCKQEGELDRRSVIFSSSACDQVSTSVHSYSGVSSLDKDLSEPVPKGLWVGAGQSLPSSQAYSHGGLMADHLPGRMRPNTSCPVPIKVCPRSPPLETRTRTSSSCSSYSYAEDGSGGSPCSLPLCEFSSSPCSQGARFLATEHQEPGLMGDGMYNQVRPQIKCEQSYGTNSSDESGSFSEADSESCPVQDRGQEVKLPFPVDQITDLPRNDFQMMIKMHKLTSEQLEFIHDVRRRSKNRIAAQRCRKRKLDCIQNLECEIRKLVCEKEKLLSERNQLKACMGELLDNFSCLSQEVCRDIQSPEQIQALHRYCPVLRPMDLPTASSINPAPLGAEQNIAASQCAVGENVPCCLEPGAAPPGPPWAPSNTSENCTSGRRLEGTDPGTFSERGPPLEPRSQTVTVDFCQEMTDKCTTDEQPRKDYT
Proto-oncogene tyrosine-protein kinase Src (Homo sapiens), sequence (P12931 2-536 limits assumed): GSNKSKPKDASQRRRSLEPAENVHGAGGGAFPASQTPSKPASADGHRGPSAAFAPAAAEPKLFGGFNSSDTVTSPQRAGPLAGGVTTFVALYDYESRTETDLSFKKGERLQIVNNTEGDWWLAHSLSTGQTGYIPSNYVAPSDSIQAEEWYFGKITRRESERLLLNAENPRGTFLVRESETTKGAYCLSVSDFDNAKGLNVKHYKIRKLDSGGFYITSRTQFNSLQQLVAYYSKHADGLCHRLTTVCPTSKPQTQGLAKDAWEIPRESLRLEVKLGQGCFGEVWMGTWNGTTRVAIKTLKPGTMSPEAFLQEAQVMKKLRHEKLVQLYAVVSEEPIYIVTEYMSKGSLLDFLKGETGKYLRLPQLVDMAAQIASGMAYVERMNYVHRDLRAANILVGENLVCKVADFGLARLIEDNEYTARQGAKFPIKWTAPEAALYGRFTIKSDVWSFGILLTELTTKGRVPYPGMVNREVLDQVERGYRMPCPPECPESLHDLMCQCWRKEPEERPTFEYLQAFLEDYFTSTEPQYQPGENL
Myoneurin (Homo sapiens), sequence (Q9NPC7 whole entry): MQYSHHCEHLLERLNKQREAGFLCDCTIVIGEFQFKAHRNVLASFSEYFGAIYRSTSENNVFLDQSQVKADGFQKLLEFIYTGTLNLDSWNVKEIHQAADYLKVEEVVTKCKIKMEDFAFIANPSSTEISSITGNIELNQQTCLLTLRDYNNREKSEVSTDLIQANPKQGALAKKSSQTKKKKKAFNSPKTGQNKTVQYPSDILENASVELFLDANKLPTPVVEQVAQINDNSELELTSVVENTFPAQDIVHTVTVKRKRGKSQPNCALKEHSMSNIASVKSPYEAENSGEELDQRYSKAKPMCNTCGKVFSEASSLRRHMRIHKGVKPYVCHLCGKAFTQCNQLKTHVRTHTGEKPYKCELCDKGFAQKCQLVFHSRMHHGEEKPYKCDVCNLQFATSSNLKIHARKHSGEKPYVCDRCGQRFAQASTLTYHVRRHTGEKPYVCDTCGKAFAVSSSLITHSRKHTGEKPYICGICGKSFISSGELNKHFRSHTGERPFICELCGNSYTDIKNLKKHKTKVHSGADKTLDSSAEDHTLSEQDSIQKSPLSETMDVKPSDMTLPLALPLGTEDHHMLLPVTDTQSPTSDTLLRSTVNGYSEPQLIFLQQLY

How did the LogFC [1] turn out when `C[C@@H]1CN(c2ncc(Cl)c(Nc3ccc4c(c3)n(CCC(C)(C)O)c(=O)n4C)n2)C[C@H](C)C1(F)F` was run?
The LogFC was -0.00139.

What about the Tm [2] of the same molecule?
Its Tm is 45 °C.

And the LogFC (Myoneurin (Homo sapiens))?
Its LogFC is -0.135.

What about the LogFC [3] of the same molecule?
Its LogFC is 0.0264.

What about the Tm [4] of the same molecule?
Its Tm is 45 °C.

And the Tm [5]?
Its Tm is 48 °C.

And the LogFC [6]?
Its LogFC is -0.0964.

And the Tm [7]?
The Tm was 34 °C.

And the Tm [8]?
The Tm was 53 °C.

And the Tm [9]?
Its Tm is 53 °C.

What about the LogFC [10] of the same molecule?
Its LogFC is 0.423.

What about the LogFC [11] of the same molecule?
The LogFC was 0.121.

And the Tm [12]?
The Tm was 46 °C.

What about the LogFC [13] of the same molecule?
Its LogFC is 0.0294.

And the Ki ([14]; read-out: Ki)?
The Ki was 3.99 µM.

And the Ki ([14]; read-out: pKi (converted))?
The Ki was 3.89 µM.

What about the Tm [15] of the same molecule?
Its Tm is 42 °C.
